In publication PMC6478789, “A chemical toolbox for the study of bromodomains and epigenetic signaling” (Nature Communications, 2019):
Like-named read-outs stand apart in the source and are kept apart here.

How the values were obtained:
BAZ2A = molecular target: T1, BAZ2A (Homo sapiens, UniProt Q9UIF9); experiment: BROMOscan ligand-binding assay
T1 sequence (Q9UIF9 1793-1897 limits assumed): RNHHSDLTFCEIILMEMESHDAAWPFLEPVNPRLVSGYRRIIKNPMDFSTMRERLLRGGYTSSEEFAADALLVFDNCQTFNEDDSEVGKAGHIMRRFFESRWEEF
Text: (§1) BROMOscan is a binding assay based on the well-known KINOMEscan technology. This assay measures the binding of a DNA-tagged bromodomain to an immobilized BRD ligand. If an inhibitor is present, it will compete with the bromodomain binding to the immobilized ligand, resulting in reduction of a quantitative PCR (qPCR) signal in a dose-dependent manner.

BRD1 = molecular target: T2, BRD1 (Homo sapiens, UniProt O95696); experiment: BROMOscan ligand-binding assay
T2 sequence (O95696 562-666 limits assumed): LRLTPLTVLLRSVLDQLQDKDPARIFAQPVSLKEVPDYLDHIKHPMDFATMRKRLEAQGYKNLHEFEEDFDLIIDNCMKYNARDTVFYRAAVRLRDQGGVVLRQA
Text: as §1

BRD2(1) = BRD2(1) (Homo sapiens, UniProt P25440); experiment: BROMOscan ligand-binding assay
Text: as §1

BRD2(2) = BRD2(2) (Homo sapiens, UniProt P25440); experiment: BROMOscan ligand-binding assay
Text: as §1

BRD7 = molecular target: T3, BRD7 (Homo sapiens, UniProt Q9NPI1); experiment: BROMOscan ligand-binding assay
T3 sequence (Q9NPI1 131-235 limits assumed): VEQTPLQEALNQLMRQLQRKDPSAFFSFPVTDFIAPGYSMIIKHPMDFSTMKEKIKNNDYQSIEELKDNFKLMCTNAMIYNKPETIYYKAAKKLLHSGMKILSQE
Text: as §1

BRD8(2) = BRD8(2) (Homo sapiens, UniProt Q9H0E9); experiment: BROMOscan ligand-binding assay
Text: as §1

FALZ = FALZ (Homo sapiens, UniProt Q12830); experiment: BROMOscan ligand-binding assay
Text: as §1

PBRM1(2) = PBRM1(2) (Homo sapiens, UniProt Q86U86); experiment: BROMOscan ligand-binding assay
Text: as §1

PBRM1(5) = PBRM1(5) (Homo sapiens, UniProt Q86U86); experiment: BROMOscan ligand-binding assay; conditions: PBRM1(5)
Text: as §1

TAF1L(2) = molecular target: T4, TAF1L(2) (Homo sapiens, UniProt Q8IZX4); experiment: BROMOscan ligand-binding assay
T4 sequence (Q8IZX4 1517-1626 limits assumed): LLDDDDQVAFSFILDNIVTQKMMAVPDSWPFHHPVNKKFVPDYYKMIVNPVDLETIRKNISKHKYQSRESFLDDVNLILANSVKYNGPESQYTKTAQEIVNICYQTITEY
Text: as §1

TRIM24(PHD,BRD) = molecular target: T5, TRIM24(PHD,BRD) (Homo sapiens, UniProt O15164); experiment: BROMOscan ligand-binding assay
T5 sequence (O15164 824-1006 limits assumed): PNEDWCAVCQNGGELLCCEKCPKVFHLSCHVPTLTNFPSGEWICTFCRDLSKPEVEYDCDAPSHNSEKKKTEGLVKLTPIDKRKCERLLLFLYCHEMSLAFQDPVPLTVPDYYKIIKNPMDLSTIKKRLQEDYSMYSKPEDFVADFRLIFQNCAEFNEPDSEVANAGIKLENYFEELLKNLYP
Text: as §1

WDR9(2) = WDR9(2) (Homo sapiens, UniProt Q9NSI6); experiment: BROMOscan ligand-binding assay
Text: as §1

EP300 = EP300 (Homo sapiens, UniProt Q09472); experiment: Histone acetyltransferase (HAT) activity assay; assay type: biochemical; conditions: for activity at 1 µM / activity at 10 µM: read-out: HATs Activity (%);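 as to all read-outs here: selectivity screen of bromodomain probe compounds against histone acetyltransferases, with enzyme activity given in percent for compounds tested at 1 and 10 µM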
HAT1 = molecular target: T6, HAT1 (Homo sapiens, UniProt O14929); experiment: Histone acetyltransferase (HAT) activity assay; assay type: biochemical; conditions: for activity at 1 µM / activity at 10 µM: read-out: HATs Activity (%);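 as to all read-outs here: HAT selectivity screen of BRD probe compounds, enzyme activity in % measured with compound at 1 µM and 10 µM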
T6 sequence (O14929 1-419): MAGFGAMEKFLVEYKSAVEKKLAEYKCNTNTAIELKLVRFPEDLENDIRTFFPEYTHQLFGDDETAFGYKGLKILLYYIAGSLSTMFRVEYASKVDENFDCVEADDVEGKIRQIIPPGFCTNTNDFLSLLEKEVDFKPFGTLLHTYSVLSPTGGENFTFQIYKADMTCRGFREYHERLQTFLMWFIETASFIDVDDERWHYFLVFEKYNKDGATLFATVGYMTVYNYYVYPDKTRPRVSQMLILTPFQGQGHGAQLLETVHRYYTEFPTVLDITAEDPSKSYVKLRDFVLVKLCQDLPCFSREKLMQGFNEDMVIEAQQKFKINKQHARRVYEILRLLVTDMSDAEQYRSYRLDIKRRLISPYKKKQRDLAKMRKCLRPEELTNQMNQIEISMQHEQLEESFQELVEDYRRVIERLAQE

MYST1 = molecular target: T7, MYST1 (Homo sapiens, UniProt Q9H7Z6); experiment: Histone acetyltransferase (HAT) activity assay; assay type: biochemical; conditions: for activity at 1 µM / activity at 10 µM: read-out: HATs Activity (%);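 as to all read-outs here: selectivity screen across a panel of histone acetyltransferases, with compounds tested at 1 and 10 µM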
T7 sequence (Q9H7Z6 1-458): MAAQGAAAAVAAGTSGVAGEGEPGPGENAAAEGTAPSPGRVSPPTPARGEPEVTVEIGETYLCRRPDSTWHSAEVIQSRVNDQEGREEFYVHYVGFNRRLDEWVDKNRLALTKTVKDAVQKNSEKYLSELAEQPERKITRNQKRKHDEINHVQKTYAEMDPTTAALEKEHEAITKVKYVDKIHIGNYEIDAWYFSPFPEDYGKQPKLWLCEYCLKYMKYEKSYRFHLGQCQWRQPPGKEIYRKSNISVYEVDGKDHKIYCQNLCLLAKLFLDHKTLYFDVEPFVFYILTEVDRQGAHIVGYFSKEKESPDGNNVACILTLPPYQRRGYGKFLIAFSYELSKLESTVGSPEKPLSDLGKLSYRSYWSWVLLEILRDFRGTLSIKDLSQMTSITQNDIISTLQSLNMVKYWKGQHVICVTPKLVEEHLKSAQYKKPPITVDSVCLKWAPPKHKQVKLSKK

MYST3 = MYST3 (Homo sapiens, UniProt Q92794); experiment: Histone acetyltransferase (HAT) activity assay; assay type: biochemical; conditions: for activity at 1 µM / activity at 10 µM: read-out: HATs Activity (%);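 as to all read-outs here: selectivity screen of bromodomain probe compounds across a panel of histone acetyltransferases, read out as enzyme activity in %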
GCN5L2 = GCN5L2 (Homo sapiens, UniProt Q92830); experiment: Histone acetyltransferase (HAT) activity assay; assay type: biochemical; conditions: for activity at 1 µM / activity at 10 µM: read-out: HATs Activity (%);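 as to all read-outs here: selectivity screen of BRD probe compounds across a panel of histone acetyltransferases, HAT activity in % with compound at 1 or 10 µM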
[1] = read-out: KD (BROMOscan), sheet prints no unit (nM)
[2] = KD (BROMOscan), sheet prints no unit (nM)

Chain of BRD2(2) (P25440 344-453 limits assumed): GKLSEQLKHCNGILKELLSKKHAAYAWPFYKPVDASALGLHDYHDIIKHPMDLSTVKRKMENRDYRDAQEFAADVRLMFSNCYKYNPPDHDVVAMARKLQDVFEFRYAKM
Chain of BRD8(2) (Q9H0E9 1099-1207 limits assumed): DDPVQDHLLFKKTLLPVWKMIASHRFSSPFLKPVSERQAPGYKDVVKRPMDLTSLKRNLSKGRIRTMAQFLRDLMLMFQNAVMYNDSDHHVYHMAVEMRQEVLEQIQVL
Chain of WDR9(2) (Q9NSI6 1313-1418 limits assumed): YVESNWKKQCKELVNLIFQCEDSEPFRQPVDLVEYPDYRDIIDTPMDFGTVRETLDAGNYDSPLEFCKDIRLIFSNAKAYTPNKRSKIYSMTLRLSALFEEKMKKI
Chain of PBRM1(5) (Q86U86 653-763 limits assumed): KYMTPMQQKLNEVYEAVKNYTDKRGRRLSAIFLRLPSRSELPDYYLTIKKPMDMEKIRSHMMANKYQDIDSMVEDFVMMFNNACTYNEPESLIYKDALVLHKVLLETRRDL
Chain of BRD2(1) (P25440 74-180 limits assumed): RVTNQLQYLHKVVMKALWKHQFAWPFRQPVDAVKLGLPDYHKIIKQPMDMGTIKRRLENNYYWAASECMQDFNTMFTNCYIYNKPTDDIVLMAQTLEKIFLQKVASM
Chain of MYST3 (Q92794 whole entry, species assumed): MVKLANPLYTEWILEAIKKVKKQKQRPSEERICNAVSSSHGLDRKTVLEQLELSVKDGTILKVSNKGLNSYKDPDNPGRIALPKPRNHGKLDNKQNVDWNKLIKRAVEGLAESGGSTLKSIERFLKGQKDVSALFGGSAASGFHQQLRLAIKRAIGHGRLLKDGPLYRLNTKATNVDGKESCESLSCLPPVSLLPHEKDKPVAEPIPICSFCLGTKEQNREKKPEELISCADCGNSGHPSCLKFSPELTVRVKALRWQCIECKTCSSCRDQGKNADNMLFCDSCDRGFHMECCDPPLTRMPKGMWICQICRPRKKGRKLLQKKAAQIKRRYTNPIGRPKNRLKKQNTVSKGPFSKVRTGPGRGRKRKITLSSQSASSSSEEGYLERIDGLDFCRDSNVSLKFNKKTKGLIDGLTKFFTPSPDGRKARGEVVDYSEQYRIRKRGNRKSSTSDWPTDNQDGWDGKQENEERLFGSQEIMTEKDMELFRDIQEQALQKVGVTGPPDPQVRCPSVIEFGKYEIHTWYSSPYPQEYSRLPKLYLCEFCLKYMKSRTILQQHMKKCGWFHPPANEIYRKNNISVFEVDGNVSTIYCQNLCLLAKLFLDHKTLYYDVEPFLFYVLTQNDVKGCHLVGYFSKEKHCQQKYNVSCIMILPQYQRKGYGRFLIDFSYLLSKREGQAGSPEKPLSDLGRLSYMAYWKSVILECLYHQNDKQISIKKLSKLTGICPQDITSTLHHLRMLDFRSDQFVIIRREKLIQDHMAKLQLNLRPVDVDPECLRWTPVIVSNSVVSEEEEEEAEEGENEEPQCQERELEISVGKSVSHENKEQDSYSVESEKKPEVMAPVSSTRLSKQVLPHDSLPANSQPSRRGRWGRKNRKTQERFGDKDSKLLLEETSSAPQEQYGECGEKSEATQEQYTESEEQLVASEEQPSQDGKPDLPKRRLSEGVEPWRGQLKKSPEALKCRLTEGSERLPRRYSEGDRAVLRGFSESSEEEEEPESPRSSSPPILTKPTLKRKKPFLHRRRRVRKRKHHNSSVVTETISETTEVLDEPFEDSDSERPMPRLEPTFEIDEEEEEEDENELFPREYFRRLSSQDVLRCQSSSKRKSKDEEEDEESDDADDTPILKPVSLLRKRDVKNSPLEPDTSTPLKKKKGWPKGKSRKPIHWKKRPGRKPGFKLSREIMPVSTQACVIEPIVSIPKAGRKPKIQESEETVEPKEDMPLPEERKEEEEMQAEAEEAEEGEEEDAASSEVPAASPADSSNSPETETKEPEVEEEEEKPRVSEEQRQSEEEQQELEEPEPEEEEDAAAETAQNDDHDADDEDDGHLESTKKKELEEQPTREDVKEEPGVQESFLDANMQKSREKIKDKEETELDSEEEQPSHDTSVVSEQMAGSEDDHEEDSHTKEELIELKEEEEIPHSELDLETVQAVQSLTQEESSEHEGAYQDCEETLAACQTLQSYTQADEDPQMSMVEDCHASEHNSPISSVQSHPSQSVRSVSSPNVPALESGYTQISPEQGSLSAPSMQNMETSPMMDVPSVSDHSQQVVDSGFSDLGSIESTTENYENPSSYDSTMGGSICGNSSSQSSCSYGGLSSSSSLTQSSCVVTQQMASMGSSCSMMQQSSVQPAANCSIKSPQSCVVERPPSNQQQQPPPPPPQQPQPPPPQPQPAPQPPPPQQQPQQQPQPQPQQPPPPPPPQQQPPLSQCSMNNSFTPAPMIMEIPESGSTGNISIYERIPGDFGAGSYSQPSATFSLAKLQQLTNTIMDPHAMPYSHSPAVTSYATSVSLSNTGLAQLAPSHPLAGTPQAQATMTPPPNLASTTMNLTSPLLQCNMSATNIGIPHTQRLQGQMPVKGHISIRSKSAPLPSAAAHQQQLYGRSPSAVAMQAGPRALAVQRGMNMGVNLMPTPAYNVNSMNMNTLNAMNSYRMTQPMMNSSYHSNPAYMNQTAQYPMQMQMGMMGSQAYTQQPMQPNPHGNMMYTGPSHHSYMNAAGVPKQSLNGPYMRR
Chain of GCN5L2 (Q92830 whole entry, species assumed): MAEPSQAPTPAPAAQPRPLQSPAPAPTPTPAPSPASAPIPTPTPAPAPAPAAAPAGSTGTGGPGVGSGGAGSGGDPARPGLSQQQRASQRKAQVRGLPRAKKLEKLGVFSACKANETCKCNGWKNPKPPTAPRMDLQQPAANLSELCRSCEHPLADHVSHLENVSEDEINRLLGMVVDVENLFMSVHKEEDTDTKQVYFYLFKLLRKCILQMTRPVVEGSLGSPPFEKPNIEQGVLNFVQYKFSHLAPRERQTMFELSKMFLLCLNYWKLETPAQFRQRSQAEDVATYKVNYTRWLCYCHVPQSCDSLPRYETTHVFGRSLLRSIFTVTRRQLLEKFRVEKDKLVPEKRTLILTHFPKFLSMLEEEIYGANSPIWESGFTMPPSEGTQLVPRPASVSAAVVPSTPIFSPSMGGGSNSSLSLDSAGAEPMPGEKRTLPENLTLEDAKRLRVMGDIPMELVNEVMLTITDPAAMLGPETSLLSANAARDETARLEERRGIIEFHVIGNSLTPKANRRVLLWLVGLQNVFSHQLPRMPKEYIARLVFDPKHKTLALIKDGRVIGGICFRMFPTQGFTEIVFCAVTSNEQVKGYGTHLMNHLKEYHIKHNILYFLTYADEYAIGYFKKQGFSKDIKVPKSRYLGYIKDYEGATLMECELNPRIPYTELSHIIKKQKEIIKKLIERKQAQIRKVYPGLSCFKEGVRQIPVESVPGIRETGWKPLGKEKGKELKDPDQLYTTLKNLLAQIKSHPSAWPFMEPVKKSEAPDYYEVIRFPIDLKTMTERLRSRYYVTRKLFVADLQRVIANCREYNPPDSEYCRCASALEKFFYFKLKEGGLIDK
Chain of PBRM1(2) (Q86U86 177-287 limits assumed): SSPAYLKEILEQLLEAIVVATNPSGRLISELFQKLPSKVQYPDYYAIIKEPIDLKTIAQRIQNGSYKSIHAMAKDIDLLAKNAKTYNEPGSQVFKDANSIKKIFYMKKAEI

For O=C(C=CN1[C@H]2CC[C@@H]1c1ncnc(NC3CC3)c1C2)c1ccccc1O [PFI-3 D1], the Kd (BAZ2A; BROMOscan, BAZ2A) was > 30 µM, the Kd (BRD1; BROMOscan, BRD1) was > 30 µM and the Kd (BRD2(1); BROMOscan, BRD2(1)) was > 30 µM. The Kd (BRD2(2); BROMOscan, BRD2(2)) was > 30 µM, the Kd (BRD7; BROMOscan, BRD7) was > 30000 nM and the Kd (BRD8(2); BROMOscan, BRD8(2)) was > 30000 nM. The Kd (FALZ; BROMOscan, FALZ) was > 30000 nM, the Kd (PBRM1(2); BROMOscan, PBRM1(2)) was 170 nM and the Kd (PBRM1(5); BROMOscan) was 0.036 µM. The Kd (TAF1L(2); BROMOscan, TAF1L(2)) was > 30 µM, the Kd (TRIM24(PHD,BRD); BROMOscan, TRIM24(PHD,Bromo.)) was > 30000 nM and the Kd (WDR9(2); BROMOscan, WDR9(2)) was > 30000 nM.
COc1cc2c(cc1NS(=O)(=O)c1ccc(Br)cc1C)n(C)c(=O)n2C [OF-1] was tested, and the “HATs Activity (%)” value (EP300; 1µM) was 100%, the “HATs Activity (%)” value (EP300; 10µM) was 103% and the “HATs Activity (%)” value (HAT1; 1µM) was 92%. For the same compound, the “HATs Activity (%)” value (HAT1; 10µM) was 93%, the “HATs Activity (%)” value (MYST1; 1µM) was 102% and the “HATs Activity (%)” value (MYST1; 10µM) was 94%. For the same compound, the “HATs Activity (%)” value (MYST3; 1µM) was 100%, the “HATs Activity (%)” value (MYST3; 10µM) was 102% and the “HATs Activity (%)” value (GCN5L2; 1µM) was 98%. The “HATs Activity (%)” value (GCN5L2; 10µM) was 93%, the Kd (BAZ2A; BAZ2A) was 13 µM and the Kd (BRD1; BRD1) was 0.36 µM. It also gave a Kd (BRD2(1); BRD2(1)) of 7.4 µM, a Kd (BRD2(2); BRD2(2)) of 10 µM and a Kd (BRD7; BRD7) of 1000 nM. The Kd (BRD8(2); BRD8(2)) was > 50000 nM, the Kd (BRD8(2); [1]) was > 30000 nM and the Kd (FALZ; FALZ) was 1600 nM. The Kd (PBRM1(2); PBRM1(2)) was > 50000 nM, the Kd (PBRM1(2); [1]) was > 30000 nM and the Kd (PBRM1(5)) was 4.5 µM. For the same compound, the Kd (TAF1L(2); TAF1L(2)) was 5.3 µM, the Kd (TRIM24(PHD,BRD); TRIM24(PHD,Bromo.)) was 4500 nM and the Kd (WDR9(2); WDR9(2)) was > 50000 nM. The Kd (WDR9(2); [1]) was > 30000 nM.
COc1ccc(CCc2nc3cc(-c4c(C)noc4C)ccc3n2C[C@H](C)N2CCOCC2)cc1Cl [SGC-CBP30] showed an activity at 1 µM (EP300; 1µM) of 98%, an activity at 10 µM (EP300; 10µM) of 92% and an activity at 1 µM (HAT1; 1µM) of 96%. The activity at 10 µM (HAT1; 10µM) was 97%, the activity at 1 µM (MYST1; 1µM) was 103% and the activity at 10 µM (MYST1; 10µM) was 97%. The activity at 1 µM (MYST3; 1µM) was 103%, the activity at 10 µM (MYST3; 10µM) was 103% and the activity at 1 µM (GCN5L2; 1µM) was 101%. It also gave an activity at 10 µM (GCN5L2; 10µM) of 101%, a Kd (BAZ2A) of 69 µM and a Kd (BRD1) of 21 µM. The Kd (BRD2(1)) was 0.62 µM, the Kd (BRD2(2)) was 2.4 µM and the Kd (BRD7; KD, BROMOscan, BRD7) was 39000 nM. For the same compound, the Kd (BRD8(2); [2]) was > 30000 nM, the Kd (BRD8(2); KD, BROMOscan, BRD8(2)) was > 100000 nM and the Kd (FALZ; KD, BROMOscan, FALZ) was 81000 nM. For the same compound, the Kd (PBRM1(2); [2]) was > 30000 nM, the Kd (PBRM1(2); KD, BROMOscan, PBRM1(2)) was > 100000 nM and the Kd (PBRM1(5); KD, BROMOscan) was 49.7 µM. It also gave a Kd (TAF1L(2)) of 7.1 µM, a Kd (TRIM24(PHD,BRD); KD, BROMOscan, TRIM24(PHD,Bromo.)) of 6500 nM and a Kd (WDR9(2); KD, BROMOscan, WDR9(2)) of 12000 nM.
For O=C(C=CN1CC2CC1CN2c1ccccn1)c1ccccc1O (stereo not shown) [PFI-3], the activity at 1 µM (EP300; 1µM) was 98%, the activity at 10 µM (EP300; 10µM) was 97% and the activity at 1 µM (HAT1; 1µM) was 96%. It also gave an activity at 10 µM (HAT1; 10µM) of 94%, an activity at 1 µM (MYST1; 1µM) of 99% and an activity at 10 µM (MYST1; 10µM) of 99%. The activity at 1 µM (MYST3; 1µM) was 95%, the activity at 10 µM (MYST3; 10µM) was 96% and the activity at 1 µM (GCN5L2; 1µM) was 99%. The activity at 10 µM (GCN5L2; 10µM) was 101%, the Kd (BAZ2A) was > 100 µM and the Kd (BRD7; [2]) was > 30000 nM. The Kd (BRD7; KD, BRD7) was > 100000 nM, the Kd (BRD8(2); [2]) was > 30000 nM and the Kd (BRD8(2); KD, BRD8(2)) was > 100000 nM. For the same compound, the Kd (FALZ; [2]) was > 30000 nM, the Kd (FALZ; KD, FALZ) was > 100000 nM and the Kd (TRIM24(PHD,BRD); [2]) was > 30000 nM. For the same compound, the Kd (TRIM24(PHD,BRD); KD, TRIM24(PHD,Bromo.)) was > 100000 nM, the Kd (WDR9(2); [2]) was > 30000 nM and the Kd (WDR9(2); KD, WDR9(2)) was > 100000 nM.
